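Tested at 5 concentrations; 48 h exposure; 96-well plates; endpoints linearly interpolated, else capped at highest concentration. GI50 is the concentration that inhibits growth by half.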 The source made the active and inactive calls. Rule as the data show it: active = GI50 up to about 1.1 µM and inactive = higher.
Legend:
Test in all cases: inhibition of tumour cell growth, NCI panel, 48 h
U-251 = test system: U-251
IGROV-1 = test system: IGROV-1
NCI-H226 = test system: NCI-H226
T47D = test system: T47D
PC-3 = test system: PC-3
MDA-MB-435 = test system: MDA-MB-435
SW-620 = test system: SW-620
786-0 = test system: 786-0
HCT-116 = test system: HCT-116
UACC-62 = test system: UACC-62
SK-MEL-2 = test system: SK-MEL-2
RXF 393 = test system: RXF 393
SK-MEL-5 = test system: SK-MEL-5
BT-549 = test system: BT-549
NCI-H522 = test system: NCI-H522
MDA-N = test system: MDA-N

Measured: GI50

COc1ccc(-n2sc3ncc(-c4ccccc4)cc3c2=O)cc1
inactive: U-251 27.6 µM | IGROV-1 22.1 µM | NCI-H226 82.2 µM | T47D > 100 µM | PC-3 42.9 µM | MDA-MB-435 40.6 µM | SW-620 30.7 µM | 786-0 18.6 µM | HCT-116 23.1 µM | UACC-62 31 µM | SK-MEL-2 > 100 µM | RXF 393 40.2 µM | SK-MEL-5 55.2 µM | BT-549 94 µM

COc1cc2c(cc1O)NC(=O)[C@@H]1C[C@@H](O)CN1C2=O
inactive: U-251 79.3 µM | IGROV-1 > 100 µM | NCI-H226 > 100 µM | T47D > 100 µM | PC-3 43.8 µM | MDA-MB-435 91.6 µM | NCI-H522 33.8 µM | SW-620 64.3 µM | 786-0 52 µM | HCT-116 49 µM | UACC-62 > 100 µM | SK-MEL-2 > 100 µM | RXF 393 > 100 µM | SK-MEL-5 58.1 µM | BT-549 86.1 µM

C[N+](C)(CCO)CCN1c2ccccc2Sc2ccccc21
inactive: U-251 > 10 µM | IGROV-1 > 10 µM | NCI-H226 > 10 µM | T47D > 10 µM | PC-3 > 10 µM | MDA-MB-435 > 10 µM | NCI-H522 > 10 µM | MDA-N > 10 µM | SW-620 > 10 µM | HCT-116 > 10 µM | UACC-62 > 10 µM | SK-MEL-2 > 10 µM | RXF 393 > 10 µM | SK-MEL-5 > 10 µM

CCOC(=O)C(NS(=O)(=O)c1ccccc1)(C(F)(F)F)P(=O)(OCC(C)C)OCC(C)C (stereo not drawn)
inactive: U-251 > 100 µM | IGROV-1 > 100 µM | NCI-H226 > 100 µM | T47D > 100 µM | PC-3 > 100 µM | MDA-MB-435 > 100 µM | NCI-H522 > 100 µM | MDA-N > 100 µM | SW-620 > 100 µM | 786-0 > 100 µM | HCT-116 > 100 µM | UACC-62 > 100 µM | RXF 393 > 100 µM | SK-MEL-5 > 100 µM

Cc1ccc(C=C(C(=O)O)C(=O)O)o1
inactive: U-251 > 100 µM | IGROV-1 > 100 µM | NCI-H226 > 100 µM | PC-3 > 100 µM | MDA-MB-435 > 100 µM | NCI-H522 > 100 µM | MDA-N > 100 µM | SW-620 > 100 µM | 786-0 > 100 µM | HCT-116 > 100 µM | UACC-62 > 100 µM | SK-MEL-2 > 100 µM | RXF 393 > 100 µM | SK-MEL-5 > 100 µM | BT-549 > 100 µM

Cn1c(=O)oc2cc(C(O)CN3CCN(Cc4ccc5c(c4)OCO5)CC3)ccc21 (stereo not drawn)
inactive: U-251 > 100 µM | IGROV-1 > 100 µM | NCI-H226 > 100 µM | T47D > 100 µM | PC-3 > 100 µM | MDA-MB-435 > 100 µM | NCI-H522 > 100 µM | SW-620 > 100 µM | 786-0 > 100 µM | HCT-116 > 100 µM | UACC-62 > 100 µM | RXF 393 > 100 µM | BT-549 > 100 µM

CC(=O)NC(CCCCNC(=O)OC(C)(C)C)C(=O)O (stereo not drawn)
inactive: U-251 > 100 µM | IGROV-1 > 100 µM | T47D > 100 µM | PC-3 > 100 µM | MDA-MB-435 > 100 µM | NCI-H522 > 100 µM | MDA-N > 100 µM | SW-620 > 100 µM | HCT-116 > 100 µM | UACC-62 > 100 µM | SK-MEL-5 > 100 µM

CN(C)CCOC1(Cc2ccc(Cl)cc2Cl)CCC(C(C)(C)C)CC1 (stereo not drawn)
inactive: U-251 1.88 µM | IGROV-1 1.83 µM | PC-3 1.68 µM | MDA-MB-435 1.64 µM | NCI-H522 2 µM | SW-620 2.4 µM | 786-0 1.58 µM | HCT-116 1.95 µM | UACC-62 7.23 µM | SK-MEL-2 1.16 µM | RXF 393 1.97 µM | SK-MEL-5 2.36 µM

Reference: ChEMBL document CHEMBL1201862, “PubChem BioAssay data set” (2004)
